According to US20220242879A1, “FUSED HETEROCYCLE DERIVATIVES” (Janssen Sciences Ireland Unlimited Company, priority 2019, published 2022):
pEC50: −log10 of the molar value.

Legend:
[1] = tested on: HBV; experiment: Anti-HBV activity, HepG2.117 cell line, intracellular HBV DNA by real-time PCR; assay type: cell-based, Hepatitis B virus; details: mean value; HepG2.117 cells, 3 days of treatment, intracellular HBV DNA; read-out: HBV-AVE-HepG2.117 EC50
Procedure: The anti HBV activity was measured using the HepG2.117 cell line, a stable, inducibly HBV producing cell line, which replicates HBV in the absence of doxicycline (Tet-off system). The HepG2 cell line is available from ATCC® under number HB-8065. Transfection of the HepG2 cell line can be as described in Sun and Nassal 2006 Journal of Hepatology 45 (2006) 636-645 “Stable HepG2- and Huh7-based human hepatoma cell lines for efficient regulated expression of infectious hepatitis B virus”.
For the antiviral assay, HBV replication was induced, followed by a treatment with serially diluted compound in 96-well plates. After 3 days of treatment, the antiviral activity was determined by, quantification of intracellular HBV DNA using real-time PCR and an HBV specific primer set and probe.

[2] = tested on: HepG2.117 cells; experiment: Cytotoxicity, ATPlite Luminescence Assay; assay type: cell-based, human; details: mean value; cells incubated for 3 days, viability by ATPlite; read-out: TOX-HepC2.117 CC50
Procedure: Cytotoxicity of the compounds was tested using HepG2 or HepG2.117 cells, incubated for 3 days in the presence of compounds. The viability of the cells was assessed using the PERKIN ELMER ATPlite Luminescence Assay System.”

[3] = tested on: HBV; experiment: HBV replication inhibition assay (BDNA assay), HepG2.2.15 cells; assay type: cell-based, Hepatitis B virus; details: 6 days, HBV DNA in supernatant by branched DNA QuantiGene
Procedure: HBV replication inhibition by the disclosed compounds were determined in cells infected or transfected with HBV or cells with stably integrated HBV, such as HepG2.2.15 cells (Sells et al. 1987). In this example, HepG2.2.15 cells were maintained in cell culture medium containing 10% fetal bovine serum (FBS), Geneticin, L-glutamine, penicillin and streptomycin. HepG2.2.15 cells were seeded in 96-well plates at a density of 40,000 cells/well and were treated with serially diluted compounds at a final DMSO concentration of 0.5% either alone or in combination by adding drugs in a checker box format. […] HBV DNA was denatured by addition of 0.2 M NaOH and detected using a branched DNA (BDNA) QuantiGene assay kit according to manufacturer recommendation (Affymetrix). HBV DNA levels were also quantified using qPCR, based on amplification of encapsidated HBV DNA extraction with QuickExtraction Solution (Epicentre Biotechnologies) and amplification of HBV DNA using HBV specific PCR probes that can hybridize to HBV DNA and a fluorescently labeled probe for quantitation. In addition, cell viability of HepG2.2.15 cells incubated with test compounds alone or in combination was determined by using CellTitre-Glo reagent according to the manufacturer protocol (Promega). […]

| SMILES | pEC50 [1] | CC50 [2] | pEC50 [3] |
| --- | --- | --- | --- |
| CNC(=O)[C@@H]1Cc2conc2-c2c3c(nn2C1)C[C@@H](C)N(C(=O)c1ccc(Cl)c(Cl)c1)C3 (single isomer, unassigned) [Compound 47] | 6.58 | > 50000 nM |  |
| N#Cc1cc(NC(=O)N2CCc3nn4c(c3C2)-c2nocc2CC(COCC(F)F)C4)ccc1F (single isomer, unassigned) [Example 5a, (5S*)-N-3-Cyano-4-fluorophenyl)-5-(2,2-difluoroethoxy)methyl)-5,6,9,10-tetrahydro-4H-isoxazolo[3,4-c]pyrido[4′,3′:3,4]pyrazolo[1,5-a]azepine-11(12H)-carboxamide] |  |  | 7.09 |
| N#Cc1cc(NC(=O)N2CCc3nn4c(c3C2)-c2nocc2CC(COCC(F)F)C4)ccc1F (single isomer, unassigned) [Example 7a, (5R*)-N-(3-Cyano-4-fluorophenyl)-5-((2,2-difluoroethoxy)methyl)-5,6,9,10-tetrahydro-4H-isoxazolo[3,4-c]pyrido[4′,3′:3,4]pyrazolo[1,5-a]azepine-11(12H)-carboxamide] |  |  | 7.68 |
